Results reported in ChEMBL document CHEMBL4837241, “Identification of Betulinic Acid Derivatives as Potent TGR5 Agonists with Antidiabetic Effects via Humanized TGR5H88Y Mutant Mice” (J Med Chem, 2021).
Calls of active or inactive are those of the source. The rule behind the calls is not given here.

Experiments:
[1] = molecular target: T1, G-protein coupled bile acid receptor 1 (Homo sapiens) (UniProt Q8TDU6); assay: Agonist activity at N-terminal HA-tagged human TGR5 expressed in HEK293 cells assessed as […] in intracellular cAMP levels incubated for 30 mins by Lance Ultra cAMP assay relative to control; assay type: functional, cell-based; details: filed as agonist
T1 sequence (whole entry): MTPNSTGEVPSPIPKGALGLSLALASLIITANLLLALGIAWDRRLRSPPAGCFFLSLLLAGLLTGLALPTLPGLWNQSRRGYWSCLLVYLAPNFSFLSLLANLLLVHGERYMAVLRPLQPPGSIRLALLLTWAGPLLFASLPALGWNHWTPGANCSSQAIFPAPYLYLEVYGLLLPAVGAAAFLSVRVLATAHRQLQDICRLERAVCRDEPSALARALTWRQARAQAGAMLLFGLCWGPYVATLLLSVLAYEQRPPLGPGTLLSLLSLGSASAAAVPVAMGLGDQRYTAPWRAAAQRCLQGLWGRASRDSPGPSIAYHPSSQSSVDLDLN

[2] = molecular target: T2, G-protein coupled bile acid receptor 1 (Homo sapiens, UniProt Q8TDU6); assay: Agonist activity at N-terminal HA-tagged human TGR5 expressed in HEK293 cells assessed as […] in intracellular cAMP levels incubated for 30 mins by Lance Ultra cAMP assay; assay type: functional, cell-based
T2 sequence (Q8TDU6 whole entry): T1 sequence (whole entry)

[3] = molecular target: T3, Bile acid receptor (Homo sapiens) (UniProt Q96RI1); assay: Agonist activity at human FXR (247 to 467 residues) expressed in HEK293 cells at 100 uM incubated for 8 hrs by luciferase assay; assay type: cell-based
T3 sequence (whole entry): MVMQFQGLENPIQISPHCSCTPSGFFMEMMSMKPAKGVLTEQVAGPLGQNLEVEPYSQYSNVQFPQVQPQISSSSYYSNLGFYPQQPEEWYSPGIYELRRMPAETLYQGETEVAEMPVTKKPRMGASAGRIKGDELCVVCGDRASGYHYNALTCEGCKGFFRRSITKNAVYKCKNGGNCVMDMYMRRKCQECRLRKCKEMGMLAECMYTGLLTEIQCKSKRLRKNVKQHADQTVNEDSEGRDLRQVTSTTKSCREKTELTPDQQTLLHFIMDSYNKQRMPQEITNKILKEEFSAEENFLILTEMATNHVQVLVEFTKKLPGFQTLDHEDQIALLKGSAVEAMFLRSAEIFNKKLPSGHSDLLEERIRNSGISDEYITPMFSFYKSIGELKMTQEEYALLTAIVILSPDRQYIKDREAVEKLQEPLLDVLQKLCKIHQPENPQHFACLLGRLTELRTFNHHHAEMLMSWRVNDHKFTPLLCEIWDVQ

Emax [1] [%]	EC50 [2] [nM]	Activity [3]	Compound
96	26.9	inactive	CCCNC(=O)O[C@@H]1CC[C@]2(C)[C@H]3CC[C@@H]4[C@H]5[C@H](C(C)C)CC[C@]5(C(=O)O)CC[C@@]4(C)[C@]3(C)CC[C@H]2C1(C)C
92	211	inactive	CCN(C)C(=O)O[C@@H]1CC[C@]2(C)[C@H]3CC[C@@H]4[C@H]5[C@H](C(C)C)CC[C@]5(C(=O)O)CC[C@@]4(C)[C@]3(C)CC[C@H]2C1(C)C
100	25.2	inactive	COCC(=O)O[C@@H]1CC[C@]2(C)[C@H]3CC[C@@H]4[C@H]5[C@H](C(C)C)CC[C@]5(C(=O)O)CC[C@@]4(C)[C@]3(C)CC[C@H]2C1(C)C
97	132	inactive	CO/N=C(/C)[C@@H]1CC[C@]2(C(=O)O)CC[C@]3(C)[C@H](CC[C@@H]4[C@@]5(C)CC[C@@H](OC(=O)NC6CC6)C(C)(C)[C@@H]5CC[C@]43C)[C@@H]12
91	230	inactive	COc1ccc(NC(=O)O[C@@H]2CC[C@]3(C)[C@H]4CC[C@@H]5[C@H]6[C@H](C(C)C)CC[C@]6(C(=O)O)CC[C@@]5(C)[C@]4(C)CC[C@H]3C2(C)C)cc1
92	29.2	inactive	CC(C)[C@@H]1CC[C@]2(C(=O)O)CC[C@]3(C)[C@H](CC[C@@H]4[C@@]5(C)CC[C@@H](OC(=O)NC6CCCC6)C(C)(C)[C@@H]5CC[C@]43C)[C@@H]12
98	306	inactive	CC(C)[C@@H]1CC[C@]2(C(=O)OCC(=O)O)CC[C@]3(C)[C@H](CC[C@@H]4[C@@]5(C)CC[C@@H](OC(=O)NC6CC6)C(C)(C)[C@@H]5CC[C@]43C)[C@@H]12
94	175	inactive	CC(C)[C@@H]1CC[C@]2(C(=O)O)CC[C@]3(C)[C@H](CC[C@@H]4[C@@]5(C)CC[C@@H](OC(=O)Nc6cc[nH]n6)C(C)(C)[C@@H]5CC[C@]43C)[C@@H]12
99	174	inactive	CC(C)[C@@H]1CC[C@]2(NC(=O)NCC(=O)O)CC[C@]3(C)[C@H](CC[C@@H]4[C@@]5(C)CC[C@@H](OC(=O)NC6CC6)C(C)(C)[C@@H]5CC[C@]43C)[C@@H]12
99	18.6	inactive	CC1(C)[C@H](OC(=O)NC2CC2)CC[C@]2(C)[C@H]3CC[C@@H]4[C@H]5[C@H]([C@@]6(C)CO6)CC[C@]5(C(=O)O)CC[C@@]4(C)[C@]3(C)CC[C@@H]12
92	26.7	inactive	CC(C)[C@@H]1CC[C@]2(C(=O)O)CC[C@]3(C)[C@H](CC[C@@H]4[C@@]5(C)CC[C@@H](OC(=O)NC6CCC6)C(C)(C)[C@@H]5CC[C@]43C)[C@@H]12
99	10.1	inactive	CC(C)[C@@H]1CC[C@]2(C(=O)O)CC[C@]3(C)[C@H](CC[C@@H]4[C@@]5(C)CC[C@@H](OC(=O)NC6CC6)C(C)(C)[C@@H]5CC[C@]43C)[C@@H]12
75	1510	inactive	CC(C)[C@@H]1CC[C@]2(C(=O)O)CC[C@]3(C)[C@H](CC[C@@H]4[C@@]5(C)CC[C@@H](OC(=O)Nc6ccc(F)cc6)C(C)(C)[C@@H]5CC[C@]43C)[C@@H]12
100	27	inactive	CC(C)[C@@H]1CC[C@]2(C(=O)O)CC[C@]3(C)[C@H](CC[C@@H]4[C@@]5(C)CC[C@@H](OC(=O)CO)C(C)(C)[C@@H]5CC[C@]43C)[C@@H]12
97	867	inactive	CC(C)[C@@H]1CC[C@]2(N)CC[C@]3(C)[C@H](CC[C@@H]4[C@@]5(C)CC[C@@H](OC(=O)NC6CC6)C(C)(C)[C@@H]5CC[C@]43C)[C@@H]12
